The values below come from patent publication US20260256814A1, “COMBINATION FOR THE TREATMENT OF INFECTIONS CAUSED BY MYCOPLASMA GENITALIUM” (GLAXOSMITHKLINE INTELLECTUAL PROPERTY DEVELOPMENT LIMITED, priority 2019, published 2026).

In brackets after ≈: the same amount, converted by molar mass. Where two headings read alike, the source gives them in different places.

Assay [1] concerns Mycoplasma genitalium. In words: Determination of minimum inhibitory concentration (MIC) by the Vero-cell culture method, growth by qPCR. The class given is cell-based. The procedure: A collection of 54 Mycoplasma genitalium isolates originating from 51 patients were tested. Thirty-one strains were macrolide-resistant, with azithromycin MICs of ≥16 μg/mL and mutations in 23S rRNA gene positions A2058 (n=17) or A2059 (n=14, E. coli numbering). Eighteen strains were moxifloxacin-resistant (MIC≥1 μg/ml); 17 had dual resistance and were resistant to both moxifloxacin and azithromycin.
Gepotidacin minimal inhibitory concentrations (MICs) were determined by the Vero-cell culture method for all 54 isolates and minimal bactericidal concentrations (MBCs) against 44 Mycoplasma genitalium strains. Gepotidacin, azithromycin, doxycycline, and moxifloxacin MICs were determined by inoculating 5000 genome equivalents (geq) as determined by quantitative PCR (qPCR) into a Vero-cell culture containing two-fold dilutions of test-antibiotic (Hamasuna et al., Antimicrob. Agents Chemother 49, 4993-4998 (2005)). After a three-week incubation period, cells and supernatant were harvested and growth of Mycoplasma genitalium was determined by qPCR. MIC was defined as the minimal concentration of the test-antibiotic causing a 99% inhibition of growth when compared to the mean of the control cultures grown without antibiotic.

Assay [2] concerns Mycoplasma genitalium. The assay can be described thus: Determination of minimum bactericidal concentration (MBC), Vero-cell culture, qPCR. The class given is cell-based. Conditions: Mycoplasmoides genitalium, read-out: median MBC. The procedure:
After incubation for MIC determination, 15 μl of culture medium was transferred from the MIC plate to 135 μl fresh Vero-cell suspension, resulting in a 10-fold dilution of gepotidacin. Plates were sealed and incubated for four weeks and Mycoplasma genitalium growth was subsequently determined by qPCR. MBC was defined as the minimal concentration of the test-antibiotic causing a 99% inhibition of growth when compared to the mean of the control culture wells grown without antibiotic.
(Quantitative PCR measures a nucleic acid by following its amplification.)

Assay [3] concerns Mycoplasma genitalium. Conditions: alternative treatment of Mycoplasma genitalium infection; cited from earlier work.
The mark [4] stands for this setting: all 54 isolates, Vero-cell culture.
Where [5] appears, read: 18 moxifloxacin-resistant isolates.
Where [6] appears, read: 36 moxifloxacin-susceptible isolates.
The mark [7] stands for this setting: Mycoplasmoides genitalium, all 54 isolates (36 moxifloxacin-susceptible and 18 moxifloxacin-resistant), Vero-cell culture, 99% inhibition of growth, read-out: MIC50.
Where [8] appears, read: Mycoplasmoides genitalium, all 54 isolates, Vero-cell culture, read-out: MIC90.

As to `COc1c(N2C[C@@H]3CCCN[C@@H]3C2)c(F)cc2c(=O)c(C(=O)O)cn(C3CC3)c12` [Moxifloxacin, reference compound], in the assay with Mycoplasma genitalium [1] (Mycoplasmoides genitalium), the MIC is at least 1 µg/mL; the MIC50 – broadly, the lowest concentration that inhibits either 50% of growth or 50% of the strains tested, depending on the study – is 0.25 µg/mL (≈ 0.623 µM); the MIC90 (in general, the lowest concentration that inhibits either 90% of growth or 90% of the strains tested, depending on the study) came out at 4 µg/mL (≈ 9.96 µM). This compound also had an MIC90 in the assay on Mycoplasma genitalium [1] (setting [4]) of 4 µg/mL (≈ 9.96 µM).

For the compound `O=c1ccc2ncc(=O)n3c2n1C[C@H]3CN1CCC(NCc2cc3c(cn2)OCCC3)CC1` [Gepotidacin, (2R)-2-({4-[(3,4-dihydro-2/pyrano[2,3-c]pyridin-6-ylmethyl)amino]-1-piperidinyl}methyl)-1,2-dihydro-3H,8/2a,5,8a-triazaacenaphthylene-3,8-dione], the MIC90 against Mycoplasma genitalium [1] (setting [5]), in the assay on Mycoplasma genitalium [1] (setting [6]), against Mycoplasma genitalium [1] (Mycoplasmoides genitalium) and against Mycoplasma genitalium [1] (setting [4]) was 0.25 µg/mL (≈ 0.557 µM) each time. Besides, the MIC range in the assay on Mycoplasma genitalium [1] (setting [5]) is at most 0.016 to 0.5 µg/mL; against Mycoplasma genitalium [1] (setting [6]) it was 0.032 to 0.5 µg/mL; in the assay with Mycoplasma genitalium [1] (all 54 isolates), at most 0.016 to 0.5 µg/mL; against Mycoplasma genitalium [1] (setting [4]) it was at most 0.016 to 0.5 µg/mL. Further, the “median MIC” value in the assay with Mycoplasma genitalium [1] (44 isolates for which MBCs were available) amounted to 0.064 µg/mL. Besides, the “difference in MIC between fluoroquinolone-, dual-resistant and -susceptible isolates” value with Mycoplasma genitalium [1] (54 isolates, p=0.2) is on record as “no difference”. Moreover, the “difference in MIC between macrolide-resistant and -susceptible isolates” value in the assay on Mycoplasma genitalium [1] (54 isolates, p=0.24) is given as “no difference”. Further, the MIC50 in the assay on Mycoplasma genitalium [1] (Mycoplasmoides genitalium, 18 moxifloxacin-resistant isolates) amounted to 0.064 µg/mL (≈ 0.143 µM); with Mycoplasma genitalium [1] (Mycoplasmoides genitalium, 36 moxifloxacin-susceptible isolates) it was 0.125 µg/mL (≈ 0.279 µM); with Mycoplasma genitalium [1] (Mycoplasmoides genitalium, all 54 isolates (36 moxifloxacin-susceptible and 18 moxifloxacin-resistant), Vero-cell culture, 99% inhibition of growth) it was 0.125 µg/mL (≈ 0.279 µM). Moreover, the MIC in the assay on Mycoplasma genitalium [1] (Mycoplasmoides genitalium, read-out: median MIC, 44 isolates for which MBCs were available) was 0.064 µg/mL (≈ 0.143 µM); in the assay with Mycoplasma genitalium [1] (Mycoplasmoides genitalium, read-out: median MIC, all 54 isolates), 0.125 µg/mL (≈ 0.279 µM); with Mycoplasma genitalium [1] (Mycoplasmoides genitalium, read-out: modal MIC, all 54 isolates) it was 0.125 µg/mL (≈ 0.279 µM). Moreover, the “cross-resistance to the tested comparators” value in the assay with Mycoplasma genitalium [1] (all isolates incl. fluoroquinolone- and macrolide-resistant) is given as “no cross-resistance”. Moreover, the MBC (usually the lowest tested concentration that kills the bacteria rather than only halting them) in the assay on Mycoplasma genitalium [2] amounted to 0.125 µg/mL (≈ 0.279 µM).

Take `CC[C@H]1OC(=O)[C@H](C)[C@@H](O[C@H]2C[C@@](C)(OC)[C@@H](O)[C@H](C)O2)[C@H](C)[C@@H](O[C@@H]2O[C@H](C)C[C@H](N(C)C)[C@H]2O)[C@](C)(O)C[C@@H](C)CN(C)[C@H](C)[C@@H](O)[C@]1(C)O` [Azithromycin, reference compound]: the MIC in the assay with Mycoplasma genitalium [1] (Mycoplasmoides genitalium, read-out: MICs, 31 macrolide-resistant strains (23S rRNA A2058 or A2059 mutations)) is at least 16 µg/mL. The MIC50 in the assay with Mycoplasma genitalium [1] (setting [7]) is 16 µg/mL (≈ 21.4 µM). The MIC90 in the assay on Mycoplasma genitalium [1] (setting [8]) and with Mycoplasma genitalium [1] (setting [4]) was over 64 µg/mL throughout.

Take pristinamycin: the effective with Mycoplasma genitalium [3] was 80%.

For `C[C@H]1c2cccc(O)c2C(=O)C2=C(O)[C@]3(O)C(=O)C(C(N)=O)=C(O)[C@@H](N(C)C)[C@@H]3[C@@H](O)[C@@H]21` [Doxycycline, reference compound], the MIC50 in the assay on Mycoplasma genitalium [1] (setting [7]) was 0.5 µg/mL (≈ 1.13 µM). In the assay on Mycoplasma genitalium [1] (setting [8]), the MIC90 came out at 1 µg/mL (≈ 2.25 µM). The compound also gave an MIC range with Mycoplasma genitalium [1] (setting [4]) of 0.06 to 2 µg/mL.
